Experimental data as given in patent US11147272B2, “Pyridone compounds and agricultural and horticultural fungicides comprising the same as active ingredients” (MITSUI CHEMICALS AGRO, INC., priority 2017, dated 2021).

What was measured:
Magnaporthe grisea = test: whole plant or invertebrate; assay type: in vivo; settings: Blast on rice; class of control value
Alternaia brassicicola = test: Test Example C: Alternaria sooty spot on cabbage; assay type: in vivo; settings: Alternaria sooty spot on cabbage; class of control value
From the text: Seeds of a test plant (cabbage variety: Shikidori) were planted and cultivated until the cotyledons extended.
<Control Value> Control value=100{1−(n/3)}

Puccinia recondita = test: Test Example E: Brown rust on wheat; assay type: in vivo; settings: Brown rust on wheat; class of control value
Phytophthora infestans = test: whole plant or invertebrate; assay type: in vivo; settings: Late blight on tomato; class of control value
Botrytis cinerea = test: Test Example B: Gray mold on tomato; settings: Gray mold on tomato; class of control value
Plasmopara viticola = test: Test Example G: Downy mildew on vine; settings: Downy mildew on vine (Neomuscat); 250 ppm spray, 2.5 ml/pot; assessed 7 to 10 days after inoculation
[1] = system: Colletotrichum orbiculare; test: Test Example H: Anthracnose on cucumber; settings: Anthracnose on cucumber (Sagami Hanjiro); 250 ppm spray, 2.5 ml/pot; assessed 6 to 10 days after inoculation
[2] = system: Blumeria graminis f. sp. hordei; test: Test Example D: Powdery mildew on barley; settings: Powdery mildew on barley; class of control value

Row | SMILES | Test A control value class (Magnaporthe grisea) | Test C control value class (Alternaia brassicicola) | Test E control value class (Puccinia recondita) | Test F control value class (Phytophthora infestans) | Test B control value class (Botrytis cinerea) | Test G control value class (Plasmopara viticola) | Test H control value class [1] | Test D control value class [2]
1 | CCC(=O)c1cc(Cl)c(=O)n(CC)c1-c1c(F)cc(F)cc1F [compound 49] | H (more than 50% control value) | H (more than 50% control value) | H (more than 50% control value) | L (50% or less control value) | H (more than 50% control value) | L (50% or less control value) | H (more than 50% control value) | H (more than 50% control value)
2 | CCC(O)c1cc(Cl)c(=O)n(CC)c1-c1c(F)cc(OC)cc1F (stereo not shown) [compound 50] | H (more than 50% control value) | H (more than 50% control value) | H (more than 50% control value) | L (50% or less control value) | H (more than 50% control value) | H (more than 50% control value) | H (more than 50% control value) | L (50% or less control value)
3 | CCC(=O)c1cc(Cl)c(=O)n(CC)c1-c1c(F)cc(OC)cc1F [compound 51] | H (more than 50% control value) | H (more than 50% control value) | H (more than 50% control value) | L (50% or less control value) | H (more than 50% control value) | L (50% or less control value) | H (more than 50% control value) | H (more than 50% control value)
4 | CCn1c(-c2c(F)cc(F)cc2F)c(C(C)(O)CC)cc(Cl)c1=O (stereo not shown) [compound 52] | H (more than 50% control value) | H (more than 50% control value) | H (more than 50% control value) | L (50% or less control value) | H (more than 50% control value) | H (more than 50% control value) | H (more than 50% control value) | H (more than 50% control value)
5 | CCn1c(-c2c(F)cc(F)cc2F)c(C(C)(CC)OC)cc(Cl)c1=O (stereo not shown) [compound 54] | H (more than 50% control value) | H (more than 50% control value) | H (more than 50% control value) | L (50% or less control value) | H (more than 50% control value) | L (50% or less control value) | H (more than 50% control value) | H (more than 50% control value)
6 | CCn1c(-c2c(F)cc(OC)cc2F)c(C(C)(CC)OC)cc(Cl)c1=O (stereo not shown) [compound 55] | H (more than 50% control value) | H (more than 50% control value) | H (more than 50% control value) | L (50% or less control value) | H (more than 50% control value) | L (50% or less control value) | H (more than 50% control value) | H (more than 50% control value)
7 | CCn1c(-c2c(F)cc(F)cc2F)c(C(C)(F)CC)cc(Cl)c1=O (stereo not shown) [compound 56] | H (more than 50% control value) | H (more than 50% control value) | H (more than 50% control value) | L (50% or less control value) | H (more than 50% control value) | H (more than 50% control value) | H (more than 50% control value) | H (more than 50% control value)
8 | CCn1c(-c2c(F)cccc2F)c(COC(C)C)cc(Cl)c1=O [compound 57] | L (50% or less control value) | H (more than 50% control value) | H (more than 50% control value) | L (50% or less control value) | H (more than 50% control value) | L (50% or less control value) | H (more than 50% control value) | H (more than 50% control value)
9 | CCn1c(-c2c(F)cc(F)cc2F)c(COC(C)C)cc(Cl)c1=O [compound 58] | H (more than 50% control value) | H (more than 50% control value) | H (more than 50% control value) | L (50% or less control value) | H (more than 50% control value) | L (50% or less control value) | H (more than 50% control value) | H (more than 50% control value)
10 | CCn1c(-c2c(F)cc(OC)cc2F)c(C(C)(O)CC)cc(Cl)c1=O (stereo not shown) [compound 59] | H (more than 50% control value) | H (more than 50% control value) | H (more than 50% control value) | L (50% or less control value) | H (more than 50% control value) | H (more than 50% control value) | H (more than 50% control value) | H (more than 50% control value)
11 | CCn1c(-c2c(F)cc(OC)cc2F)c(COC(C)C)cc(Cl)c1=O [compound 60] | H (more than 50% control value) | H (more than 50% control value) | H (more than 50% control value) | L (50% or less control value) | H (more than 50% control value) | H (more than 50% control value) | H (more than 50% control value) | H (more than 50% control value)
12 | CCn1c(-c2c(F)cc(OC)cc2F)c(C(C)(F)CC)cc(Cl)c1=O (stereo not shown) [compound 61] | H (more than 50% control value) | H (more than 50% control value) | H (more than 50% control value) | L (50% or less control value) | H (more than 50% control value) | H (more than 50% control value) | H (more than 50% control value) | H (more than 50% control value)
13 | CCOCc1cc(Cl)c(=O)n(CC)c1-c1c(F)cccc1F [compound 62] | H (more than 50% control value) | H (more than 50% control value) | H (more than 50% control value) | L (50% or less control value) | H (more than 50% control value) | H (more than 50% control value) | H (more than 50% control value) | H (more than 50% control value)
14 | CCn1c(-c2c(F)cccc2F)c(C(OC)C(C)C)cc(Cl)c1=O (stereo not shown) [compound 63] | H (more than 50% control value) | H (more than 50% control value) | H (more than 50% control value) | L (50% or less control value) | H (more than 50% control value) | H (more than 50% control value) | H (more than 50% control value) | H (more than 50% control value)
